Data set [1] concerns the target T1, human aromatase (Homo sapiens, UniProt P11511).
T1 construct: The JEG-3 cell line, derived from a human placental choriocarcinoma, constitutively overexpresses human aromatase; endogenous in cells; host or cells: JEG-3 (human placental choriocarcinoma)
T1 sequence (P11511 1-503): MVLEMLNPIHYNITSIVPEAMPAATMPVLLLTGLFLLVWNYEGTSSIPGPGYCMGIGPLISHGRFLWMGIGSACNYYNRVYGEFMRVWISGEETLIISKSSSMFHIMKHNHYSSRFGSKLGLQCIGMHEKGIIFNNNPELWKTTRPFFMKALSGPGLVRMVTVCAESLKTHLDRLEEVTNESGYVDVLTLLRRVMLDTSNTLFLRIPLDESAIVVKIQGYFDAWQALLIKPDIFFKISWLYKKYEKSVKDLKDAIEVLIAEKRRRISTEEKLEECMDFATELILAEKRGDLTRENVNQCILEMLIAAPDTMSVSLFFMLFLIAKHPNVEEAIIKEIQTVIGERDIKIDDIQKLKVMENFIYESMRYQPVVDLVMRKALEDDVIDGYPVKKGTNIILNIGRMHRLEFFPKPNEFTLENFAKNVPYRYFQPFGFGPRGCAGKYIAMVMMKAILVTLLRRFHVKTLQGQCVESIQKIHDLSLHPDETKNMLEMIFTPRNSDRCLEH
The experiment in a line: Aromatase activity alone, tritiated water method in JEG-3 cells. In kind it is cell-based. The conditions noted are these: footnote a: aromatase activity alone, nd: not detected, read-out: Aromatase activity IC50 (nM) ± S.E.M. As to the method:
The JEG-3 cell line, derived from a human placental choriocarcinoma, constitutively overexpresses human aromatase and represents a relevant model for assaying putative aromatase inhibitors in vitro. Aromatase activity was determined by the tritiated water method. In brief, cells were first seeded into 96-well microplates in decomplemented fetal calf serum (dFCS) supplemented medium. 24 hours later, cells were rinsed and fresh medium containing 1β-^3H-androstenedione as aromatase substrate was added together with test compounds at concentrations ranging from 10^−12 M to 10^−5 M. After 2 hours of incubation, a fraction of the medium was transferred to homologous new 96-well microplates and a dextran-coated charcoal solution was added to each well. Following standing on ice for 10 minutes, microplates were centrifuged (1500 g; 4° C.). All steroids, including the radioactive substrate and the newly biosynthesized estrogens, were adsorbed on charcoal; only ^3H-water specifically formed during aromatisation of 1β-^3H-androstenedione, remained in the supernatant. The radioactivity in the supernatant was measured by liquid scintillation counting. In parallel, cell solubilization was performed in ethylenediamine tetraacetate solution. […] Finally, aromatase activity was expressed in fmoles of ^3H-water formed/2 hours/μg DNA and aromatase inhibition as a percentage of control activity without inhibitor.

In data set [2] the target is T1, human aromatase. Description: Dual aromatase and steroid sulfatase activities in JEG-3 cells: aromatase readout. In kind it is cell-based. The conditions noted are these: footnote c: dual aromatase and sulfatase activity, nd: not detected, read-out: Aromatase activity IC50 (nM) ± S.E.M. As to the method:
Assays were carried out with cells in logarithmic growth phase on 96-well microplates. 24 h before studies, cells were seeded in decomplemented fetal calf serum (dFCS) supplemented medium. The medium was removed 24 h later and cells were rinsed with PBS to eliminate any trace of dFCS. Then, ^3H-E1S was added in dFCS free medium, followed by test compounds at concentrations ranging from 10^−12 M to 10^−5 M. After 4 h of treatment, the medium was transferred into 96-deep-well microplates and centrifuged at 200×g for 10 min to pellet cells before toluene extraction. A fraction of the medium was used for toluene extraction in order to separate the conjugated substrate from non-conjugated products. The radioactivity in the toluene phase was measured by liquid scintillation counting. […] Finally, estrone sulfatase activity was expressed in pmoles of ^3H-E1+^3H-E2 formed/4 hours/mg DNA and estrone sulfatase inhibition as a percentage of control activity without inhibitor.
In order to evaluate the inhibitory potency of DASI compounds in parallel on both human aromatase and steroid sulfatase activities, a new in vitro model was set up using JEG-3 cells. The experimental conditions of the steroid sulfatase model previously described was adopted with slight modifications: the presence of the two substrates ^3-HE1S and 1β-^3H-androstenedione into the medium and an incubation period of 2 hours. Results were expressed in pmoles of product formed (^3H-E1+^3H-E2 or ^3H2O)/2 hours/mg DNA (Table 1).

The subject of data set [3] is Ishikawa cells. The experiment in a line: Alkaline phosphatase activity in Ishikawa cells (estrogenic potency). In kind it is cell-based. The procedure:
Ishikawa cells were plated into 96-well microplates 48 hours before studies. The next day, the medium was replaced by phenol red free medium supplemented with 5% charcoal-stripped dFCS. 24 hours later, the medium was renewed and compounds were added to the plated cells and incubated for an additional four-day period. […] At the end of the incubation period, alkaline phosphatase activity (APase) was assayed by a method involving the hydrolysis of p-nitrophenyl phosphate to p-nitrophenol and spectrophotometric determination of the product at 405 nm.
In brief, the microplates were first rinsed twice with cold phosphate buffered solution and then placed at −80° C. for at least 15 minutes. After thawing at room temperature, 50 μl ice-cold solution containing 5 mM p-nitrophenyl phosphate was added to each well. After a 15 to 60 minute incubation period at room temperature, the intensity of the yellow color generated by the production of p-nitrophenol was measured into each well at 405 nm.
For each tested concentration, APase activity, reflected by absorbance, was first expressed as fold increase over control (FI) and then as percentage of E2 activity (10^-8 M) chosen equal to 100%.

Data set [4] concerns the target T2, human estrone sulfatase (Homo sapiens, UniProt P08842).
T2 construct: The JEG-3 cell line is intrinsically very rich in human estrone sulfatase; endogenous in cells; host or cells: JEG-3 (human placental choriocarcinoma)
T2 sequence (P08842 22-583): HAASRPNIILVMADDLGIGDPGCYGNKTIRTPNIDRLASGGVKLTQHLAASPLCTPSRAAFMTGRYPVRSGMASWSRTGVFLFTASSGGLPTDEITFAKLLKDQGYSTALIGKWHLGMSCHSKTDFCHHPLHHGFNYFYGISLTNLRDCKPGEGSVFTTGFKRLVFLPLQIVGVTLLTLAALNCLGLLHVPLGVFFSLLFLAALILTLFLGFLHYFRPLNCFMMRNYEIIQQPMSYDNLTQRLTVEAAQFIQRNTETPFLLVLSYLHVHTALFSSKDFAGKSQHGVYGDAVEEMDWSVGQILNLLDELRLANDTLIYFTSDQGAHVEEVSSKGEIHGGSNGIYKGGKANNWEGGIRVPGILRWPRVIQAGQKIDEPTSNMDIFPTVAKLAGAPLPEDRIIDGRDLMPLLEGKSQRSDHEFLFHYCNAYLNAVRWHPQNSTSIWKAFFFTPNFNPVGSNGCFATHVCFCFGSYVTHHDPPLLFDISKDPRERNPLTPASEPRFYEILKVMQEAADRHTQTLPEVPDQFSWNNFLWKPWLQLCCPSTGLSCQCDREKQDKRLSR
Description: Steroid (estrone) sulfatase activity alone in JEG-3 cells. In kind it is cell-based. The conditions noted are these: footnote b: sulfatase activity alone, nd: not detected, read-out: Sulfatase activity IC50 (nM) ± S.E.M. As to the method:
The JEG-3 cell line is intrinsically very rich in human estrone sulfatase and therefore is a useful biological system to evaluate new steroid sulfatase inhibitors in vitro. Assays were carried out with cells in logarithmic growth phase on 96-well microplates. 24 h before studies, cells were seeded in decomplemented fetal calf serum (dFCS) supplemented medium. The medium was removed 24 h later and cells were rinsed with PBS to eliminate any trace of dFCS. Then, ^3H-E1S was added in dFCS free medium, followed by test compounds at concentrations ranging from 10^−12 M to 10^−5 M. After 4 h of treatment, the medium was transferred into 96-deep-well microplates and centrifuged at 200×g for 10 min to pellet cells before toluene extraction. A fraction of the medium was used for toluene extraction in order to separate the conjugated substrate from non-conjugated products. The radioactivity in the toluene phase was measured by liquid scintillation counting. In parallel, after cell solubilization in a ethylenediamine tetraacetate solution, DNA content was measured by a standard fluorimetric method using the Hoechst 33258 fluorochrome. Finally, estrone sulfatase activity was expressed in pmoles of ^3H-E1+^3H-E2 formed/4 hours/mg DNA and estrone sulfatase inhibition as a percentage of control activity without inhibitor.

We go through 17 compounds from patent publication US8476455B2, “1-N-phenyl-amino-1h-imidazole derivatives and pharmaceutical compositions containing them” (Laboratoire Theramex, priority 2003, dated 2013).

Molecules are shown by their SMILES.

In the case of `N#Cc1ccc(N(Cc2ccc(O)cc2)n2ccnc2)cc1` [Ex 11, 4-[N-(4-hydroxyphenylmethyl)-N-(1H-imidazol-1-yl)amino]benzonitrile], in data set [1], the 50% inhibitory concentration (IC50) was determined as 0.17 ± 0.01 nM.

For the compound `N#Cc1ccc(N(Cc2ccc(O)c(Br)c2)n2ccnc2)cc1` [Ex 13, 4-[N-(3-bromo-4-hydroxyphenylmethyl)-N-(1H-imidazol-1-yl)amino]benzonitrile], the melting point turned out to be 198 °C. In addition, the IC50 in data set [1] is 0.17 ± 0.03 nM. Besides, in data set [2], the IC50 amounted to 0.05 ± 0.02 nM.

As to `COc1cc(CN(c2ccc(C#N)cc2)n2ccnc2)ccc1O` [Ex 14, 4-[N-(4-hydroxy-3-methoxyphenylmethyl)-N-(1H-imidazol-1-yl)amino]benzonitrile], the melting point came out at 215 °C. Moreover, in data set [1], the IC50 was determined as 0.21 ± 0.05 nM.

`N#Cc1ccc(N(Cc2ccc(O)c([N+](=O)[O-])c2)n2ccnc2)cc1` [Ex 20, 4-[N-(4-hydroxy-3-nitrophenylmethyl)-N-(1H-imidazol-1-yl)amino]benzonitrile]: the melting point was found to be 205 °C. For the same compound, the IC50 in data set [1] worked out at 0.3 nM.

Turning to `N#Cc1ccc(N(c2ccc([N+](=O)[O-])cc2)n2ccnc2)cc1` [Ex 22, 4-[N-(1H-imidazol-1-yl)-N-(4-nitrophenyl)amino]benzonitrile], the half-inhibitory concentration (IC50) in data set [1] amounted to 0.32 ± 0.4 nM.

As to `N#Cc1ccc(N(C(=O)CCc2ccc(O)cc2)n2ccnc2)cc1` [Ex 26, N-(4-cyanophenyl)-3-(4-hydroxyphenyl)-N-(1H-imidazol-1-yl)propanamide], the melting point was 172 °C. The half-maximal inhibitory concentration (IC50) in data set [1] was found to be 50.6 nM.

On to `COc1ccc2c(CN(c3ccc(C#N)cc3)n3ccnc3)csc2c1` [Ex 30, 4-{N-[1H-imidazol-1-yl]-N-[(6-methoxy-benzothien-3-yl)methyl]amino}benzonitrile], for which the half-maximal inhibitory concentration (IC50) in data set [2] came to 0.06 nM.

`N#Cc1ccc(N(Cc2ccc(O)c(N)c2)n2ccnc2)cc1` [Ex 35, 4-[N-(3-amino-4-hydroxy-phenylmethyl)-N-(1H-imidazol-1-yl)amino]benzonitrile]: in data set [2], the IC50 was 2.2 ± 0.7 nM.

`N#Cc1ccc(N(CCOc2ccc(O)cc2)n2ccnc2)cc1` [Ex 36, 4-{N-[2-(4-hydroxyphenoxy)ethyl]-N-(1H-imidazol-1-yl)amino}benzonitrile] showed a melting point of 188 °C. Besides, in data set [2], the IC50 is 0.61 ± 0.21 nM.

The compound `N#Cc1ccc(N(n2ccnc2)S(=O)(=O)c2ccc(O)cc2)cc1` [Ex 37, N-(4-cyanophenyl)-N-(1H-imidazol-1-yl)-4-hydroxybenzensulfonamide] came in with a melting point of 248 °C. For the same compound, in data set [2], the IC50 stood at 52 ± 9.6 nM.

As for `N#Cc1ccc(N(c2ccc(N)cc2)n2ccnc2)cc1` [Ex 40, 4-[N-(4-aminophenyl)-N-(1H-imidazol-1-yl)amino]benzonitrile], in data set [1], the half-inhibitory concentration (IC50) was determined as 0.67 ± 0.1 nM.

For `N#Cc1ccc(N(C(=O)c2cc3cc(N)ccc3s2)n2ccnc2)cc1` [Ex 41, 5-Amino-[N-(4-cyanophenyl)-N-(1H-imidazol-1-yl)]-benzothiophene-2-carboxamide], the IC50 in data set [2] came to 4.3 nM.

In turn, `N#Cc1ccc(N(Cc2ccc(OS(N)(=O)=O)cc2)n2ccnc2)cc1` [Ex 43, Sulfamic acid-4-{[N-(4-cyanophenyl)-N-(1H-imidazol-1yl)amino]methyl}phenyl ester] came in with a melting point of 172 °C. Further, the IC50 in data set [1] turned out to be 0.57 ± 0.16 nM. The “estrogenicity in vitro (in words)” value in data set [3] is “not estrogenic”. Also, in data set [4], the IC50 was ~10 nM.

On to `COc1cc(CN(c2ccc(C#N)cc2)n2ccnc2)ccc1OS(N)(=O)=O` [Ex 46, Sulfamic acid 2-methoxy-4-{[N-(4-cyanophenyl)-N-(1H-imidazol-1yl)amino]methyl}phenyl ester], for which the melting point amounted to 211 °C. Further, the half-inhibitory concentration (IC50) in data set [1] came to 0.79 ± 0.26 nM. Moreover, in data set [3], the “estrogenicity in vitro (in words)” value is recorded as “not estrogenic”. Besides, the IC50 in data set [4] amounted to 13.8 ± 2.5 nM.

Turning to `N#Cc1ccc(N(Cc2ccc3c(c2)C=NS(=O)(=O)O3)n2ccnc2)cc1` [Ex 48, 4-[N-[(2,2-dioxido-1,2,3-benzoxathiazin-6-yl)methyl]-N-(1H-imidazol-1-yl)amino]benzonitrile], the melting point was found to be 180 °C. Further, in data set [1], the IC50 worked out at 0.82 ± 0.12 nM. In data set [4], the IC50 was 2660 ± 257 nM.

As for `N#Cc1ccc(N(Cc2ccc3c(c2)CNS(=O)(=O)O3)n2ccnc2)cc1` [Ex 61, 4-[N-[(2,2-dioxido-3,4-dihydro-1,2,3-benzoxathiazin-6-yl)methyl]-N-(1H-imidazol-1-yl)amino]benzonitrile], the concentration for half-maximal inhibition (IC50) in data set [1] was 1.06 ± 0.21 nM.

For the compound `N#Cc1ccc(N(Cc2ccc(O)c(C(=O)O)c2)n2ccnc2)cc1` [Ex 62, 5-{[N-(4-cyanophenyl)-N-(1H-imidazol-1-yl)amino]methyl}-2-hydroxybenzoic acid], the half-maximal inhibitory concentration (IC50) in data set [2] came out at 81.8 nM.

The IC50 is the concentration at which inhibition is half-maximal. As a reminder, the melting point is the temperature, or range, at which the solid turns liquid.
